# T1: Tyrosinase (Homo sapiens, UniProt P14679)
# T1 sequence (P14679 whole entry): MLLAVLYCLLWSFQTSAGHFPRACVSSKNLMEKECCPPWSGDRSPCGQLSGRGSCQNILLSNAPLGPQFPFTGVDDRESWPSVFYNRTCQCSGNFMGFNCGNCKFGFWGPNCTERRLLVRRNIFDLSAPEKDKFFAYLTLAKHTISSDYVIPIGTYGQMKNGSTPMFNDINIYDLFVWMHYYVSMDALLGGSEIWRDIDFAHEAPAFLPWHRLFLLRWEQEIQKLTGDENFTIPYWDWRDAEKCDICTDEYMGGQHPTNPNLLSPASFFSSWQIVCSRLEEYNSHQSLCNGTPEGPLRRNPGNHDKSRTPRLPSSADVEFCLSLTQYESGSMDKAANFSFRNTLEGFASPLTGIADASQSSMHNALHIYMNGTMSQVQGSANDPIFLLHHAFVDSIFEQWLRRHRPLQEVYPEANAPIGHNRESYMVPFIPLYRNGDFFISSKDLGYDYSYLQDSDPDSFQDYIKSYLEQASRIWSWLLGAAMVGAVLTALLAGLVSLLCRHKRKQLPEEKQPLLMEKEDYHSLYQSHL
# B1: Tyrosinase (Homo sapiens), P14679 (protein)
# chain: T1 sequence (P14679 whole entry)
# Compound: O=C1/C(=C/c2ccc(O)cc2O)Cc2c(O)cccc21
# Experiment: not given
# Format: cell-based
# Settings: Homo sapiens; HEK293T; dose 0-8 µM, time 1.0 hrs
row,Molecule,Km [µM]
1,B1,161

# Compound: O=C1/C(=C/c2ccc(O)cc2O)Oc2c(O)cccc21
# Experiment: not given
# Format: cell-based
# Settings: Homo sapiens; HEK293T; dose 0-8 µM, time 1.0 hrs
row,Molecule,Km [µM]
1,B1,143

# Target: T1, Tyrosinase
# Experiment: not given
# Settings: not given
row,Molecule,Ki [µM]
1,O=C1/C(=C/c2ccc(O)cc2O)Oc2c(O)cccc21,0.55
2,O=C1/C(=C/c2ccc(O)cc2O)Cc2c(O)cccc21,0.25

# Compound: O=C1/C(=C/c2ccc(O)cc2O)Cc2c(O)cccc21
# Experiment: not given
# Format: cell-based
# Settings: Homo sapiens; HEK293T; dose 0-8 µM, time 1.0 hrs
# Remark: another data set of the same source
row,Molecule,kcat [s⁻¹]
1,B1,5.78

# Compound: O=C1/C(=C/c2ccc(O)cc2O)Oc2c(O)cccc21
# Experiment: not given
# Format: cell-based
# Settings: Homo sapiens; HEK293T; dose 0-8 µM, time 1.0 hrs
# Remark: another data set of the same source
row,Molecule,kcat [s⁻¹]
1,B1,5.41

# Compound: O=C1/C(=C/c2ccc(O)cc2O)Cc2c(O)cccc21
# Experiment: not given
# Format: cell-based
# Settings: Homo sapiens; HEK293T; dose 0-8 µM, time 1.0 hrs
# Remark: another data set of the same source
row,Molecule,Vmax [µmol/min/mg]
1,B1,5.18

# Compound: O=C1/C(=C/c2ccc(O)cc2O)Oc2c(O)cccc21
# Experiment: not given
# Format: cell-based
# Settings: Homo sapiens; HEK293T; dose 0-8 µM, time 1.0 hrs
# Remark: another data set of the same source
row,Molecule,Vmax [µmol/min/mg]
1,B1,4.86

# System: not listed separately
# Experiment: in vitro
# Settings: human, MNT-1 cells
# Description: Cytotoxicity against human MNT-1 cells
row,Molecule,CC50 [µM]
1,O=C1/C(=C/c2ccc(O)cc2O)Oc2c(O)cccc21,108
2,O=C1/C(=C/c2ccc(O)cc2O)Cc2c(O)cccc21,91

# System: MNT-1
# Experiment: cells
# Settings: Homo sapiens, MNT-1, 96 h
# Description: Inhibition of melanogenesis in human MNT-1 cells incubated for 96 hrs
row,Molecule,IC50 [µM]
1,O=C1/C(=C/c2ccc(O)cc2O)Oc2c(O)cccc21,32
2,O=C1/C(=C/c2ccc(O)cc2O)Cc2c(O)cccc21,29

# Target: Mushroom tyrosinase (Agaricus bisporus, UniProt O42713+Q00024+C7FF04+C7FF05)
# Experiment: not given
# Settings: not given
row,Molecule,Ki [µM]
1,O=C1/C(=C/c2ccc(=O)n(O)c2)Oc2cc(O)ccc21,1.27

# Target: T1, Tyrosinase
# Experiment: Inhibition of human tyrosinase
# Settings: not given
row,Molecule,IC50 [µM]
1,Oc1cccc(O)c1 [RESORCINOL],> 3000

# Target: T1, Tyrosinase
# Experiment: not given
# Settings: not given
# Remark: another data set of the same source
row,Molecule,IC50 [µM]
1,O=C1/C(=C/c2ccc(O)cc2O)Oc2cc(Cl)ccc21,> 100
2,O=C1/C(=C/c2ccc(O)cc2O)Cc2cc(O)ccc21,3.4
3,COc1ccc2c(c1C)O/C(=C\c1ccc(O)cc1O)C2=O,> 100
4,Cc1c(O)ccc2c1O/C(=C\c1ccc(O)cc1O)C2=O,80
5,O=c1cc(-c2ccc(O)cc2O)oc2ccccc12,> 100
6,Oc1ccc(Cc2cc3cccc(O)c3o2)c(O)c1,> 100
7,O=C1c2ccccc2C(=O)N1Cc1ccc(O)cc1O,> 100
8,COc1cc(OC)c2c(c1)O/C(=C\c1ccc(O)cc1O)C2=O,> 100
9,O=c1c2ccccc2[nH]n1Cc1ccc(O)cc1O,> 100
10,O=C1/C(=C/c2ccc(O)cc2O)Nc2cc(O)ccc21,2.3
11,O=C1/C(=C/c2ccc(O)cc2O)Oc2cccc(O)c21,25
12,O=C1/C(=C/c2ccc(=O)n(O)c2)Oc2cc(O)ccc21,15
13,O=C1/C(=C/c2ccc(O)cc2O)Cc2ccccc21,5.8
14,O=C1/C(=C/c2ccc(O)cc2O)Oc2cc(O)ccc21,6.4
15,CCCCOc1ccc2c(c1)O/C(=C\c1ccc(O)cc1O)C2=O,> 100
16,CN(C)c1cc(O)c2c(c1)O/C(=C\c1ccc(O)cc1O)C2=O,18.4
17,Cc1c(C(=O)c2ccc(O)cc2O)oc2c(O)cccc12,> 100
18,CCCCc1ccc(O)cc1O [RUCINOL],8.3
19,O=C1/C(=C/c2ccc(O)cc2O)Oc2cc(O)cc(O)c21,7.7
20,CC1/C(=C\c2ccc(O)cc2O)C(=O)c2ccccc21 (centres undefined),8.2

row,Molecule,IC50 [µM]
1,O=C1/C(=C/c2ccc(O)cc2O)Sc2ccccc21,5.9
2,O=C1/C(=C/c2ccc(O)cc2O)Oc2c1ccc(O)c2O,11.8
3,O=C1/C(=C/c2ccc(O)cc2O)Oc2c1ccc(O)c2I,32
4,COc1ccc2c(c1OC)O/C(=C\c1ccc(O)cc1O)C2=O,> 100
5,O=C1/C(=C/c2ccc(O)cc2O)Oc2cc(F)cc(F)c21,88
6,O=C1/C(=C/c2ccc(O)cc2O)Sc2cc(O)ccc21,5.8
7,O=C1/C(=C/c2ccc(O)cc2O)Oc2c(O)cccc21,1.57
8,O=C1/C(=C/c2ccc(O)cc2O)Cc2c(O)cccc21,1.6
9,O=C1/C(=C/c2c(O)cc(O)cc2O)Oc2cc(O)ccc21,15
10,COc1cc(O)ccc1/C=C1\Oc2cc(O)ccc2C1=O,> 100
11,CN(C)c1ccc2c(c1)O/C(=C\c1ccc(O)cc1O)C2=O,> 100
12,O=C1/C(=C/c2ccc(O)cc2O)Oc2ccc(O)cc21,19
13,O=C1/C(=C/c2ccc(O)cc2O)Nc2ccccc21,12.7
14,COc1ccc2c(c1)O/C(=C\c1ccc(O)cc1O)C2=O,6.9
15,Nc1c(C(=O)c2ccc(O)cc2O)oc2c(O)cccc12,> 100
16,COc1cccc2c1O/C(=C\c1ccc(O)cc1O)C2=O,80
17,O=C1/C(=C/c2ccc(O)cc2O)Sc2c(O)cccc21,48
18,O=C(/C=C/c1ccc(O)cc1O)c1ccccc1,60
19,O=C1/C(=C/c2ccc(O)cc2O)Oc2ccccc21,18
20,O=C1C(=Cc2ccc(O)cc2O)C(=O)c2ccccc21,> 100
